Patent US20080038208A1, “Pharmaceutical/cosmetic compositions comprising the lysine-d-proline-valine tripeptide” (SOCIETE L'OREAL S.A., priority 1995, published 2008)

Key:
[1] = test system: catagenic papilla cells (PGE2 production); test: Inhibition of IL-1α-induced production of PGE2 by catagenic papilla cells cultured in vitro; format: cell-based; conditions: 10 μM tripeptide; for PGE2: IL-1α 10 ng/ml for 20 hours, control 9.2, IL-1α alone 100.2; for % inhibition: PGE2 production induced by IL-1α 10 ng/ml
Procedure: Measurement of the inhibition of the production of PGE2 by catagenic papilla cells cultured in vitro.
The cells (1,000 per well), at the 24th passage, were incubated in 199 medium marketed by Gibco in the presence of 1% foetal calf serum and of antibiotics. 20 hours later, the medium was replaced by an identical medium, but containing the tripeptides to be evaluated at a final concentration of 10 μM. 5 hours later, interleukin-1α was added at a final concentration of 10 ng/ml. 20 hours later, the PGE2 levels produced by the cultured papilla cells were evaluated by means of a Biotrack kit marketed by Amersham, the manufacturer's instructions being followed. This method thus made it possible to evaluate the inhibiting effect of these tripeptides on the production of PGE2 induced by a proinflammatory cytokine: interleukin-1α.

interleukin-1α = test: Production of interleukin-1α in the supernatant of plucked hairs from a patient with inflammatory alopecia (ELISA); format: cell-based, human; conditions: 20 hours; for % of inhibition: IL-1α in supernatant of plucked hairs; for IL-1α: supernatant of plucked hairs, control 21.8 pg/ml
Procedure: Dose-response activity of the Ac-KPV-NH2* tripeptide with respect to the production of interleukin-1α in the supernatant of plucked hairs emanating from a patient afflicted with inflammatory alopecia.
Plucked hairs were removed from the region of the vertex of a volunteer suffering from inflammatory alopecia. They were placed in a Williams' survival medium E (marketed by Gibco BRL) containing penicillin G (100 units/ml), streptomycin S (100 μg/ml) and amphotericin (250 ng/ml), in the presence or in the absence (control) of the Ac-KPV-NH2* tripeptide, synthesized to order by Neosystem S. A. (Strasbourg), at the doses indicated. After incubating for 20 hours, the culture supernatants were collected in a tube and then centrifuged for 5 minutes at 14,000 revolutions/minute (Eppendorff centrifuge, model 5415C). The supernatants were then collected in a clean tube and placed at 4° C.
The interleukin-1α concentration was then evaluated with respect to 100 μl of supernatant by means of a Biotrak ELISA kit marketed by Amersham, according to the manufacturer's instructions.

mRNA of IL-1α = test: Expression of IL-1α messenger RNA in plucked hairs (RT-PCR, relative to GAPDH), 3 h 30 min; format: cell-based, human; conditions: treated batch, band intensity divided by GAPDH, control batch 100%
Procedure: (§1) Inhibition of the expression of the messenger RNAs of proinflammatory and inflammatory cytokines in response to the Ac-KPV-NH2* tripeptide.
(§2) Ten plucked hairs were removed from the region of the vertex of a volunteer suffering from inflammatory alopecia. These were placed in a Williams' survival medium E (marketed by Gibco BRL) containing penicillin G (100 units/ml), streptomycin S (100 μg/ml) and amphotericin (250 ng/ml), in the presence (treated batch) or in the absence (control) of the Ac-KPV-NH2* tripeptide, synthesized to order by Neosystem S. A., (Strasbourg).
(§3) After incubating for 3 h, 30 min, the messenger RNAs corresponding to these two batches of hair were purified from a “quick prep mRNA purification kit” marketed by Pharmacia. DNAs complementary to these mRNAs were then prepared by means of a reverse transcription kit marketed by Pharmacia, the manufacturer's instructions being followed, and then subjected to a polymerization chain reaction (PCR) stage by using primers specific for the mRNAs of glyceraldehyde-3-phosphate dehydrogenase (GAPDH), of IL-1α, of the type-1 IL-1 receptor and of the type-2 IL-1 receptor. The amounts of amplified DNA were then evaluated by electrophoresis on 1.5% agarose gel in the presence of ethidium bromide. […]

[2] = test system: mRNA of the type-1 IL-1 receptor (IL-1R1); test: Expression of type-1 IL-1 receptor messenger RNA in plucked hairs (RT-PCR, relative to GAPDH), 3 h 30 min; format: cell-based, human; conditions: treated batch, band intensity divided by GAPDH, control batch 100%
Procedure: as §1, §2, §3

mRNAs of IL-1α = test: Expression of the mRNAs of IL-1α calculated from the IL-1α/GAPDH ratio, plucked hairs of two donors, 20 hours; format: cell-based, human
Procedure: Inhibiting effect of Ac-KPV-NH2* on the expression of the mRNAs of IL-1α, calculated from the IL-1α/GAPDH ratio.
5 hairs were plucked from two different donors and were then incubated for 20 hours at 37° C. (5% CO2) in Williams' medium E supplemented with antibiotics and with glutamine and in the presence of Ac-KPV-NH2* at the concentrations indicated. A control was carried out in which there was no peptide added.

Acetyl-(L)Lys-(L)Pro-(L)Val-NH2 [Ac—K—P—V—NH2**, reference compound]
PGE2 [1]: 10.0 pg/mL | % inhibition [1]: 90%

Acetyl-(L)Lys-(D)Pro-(L)Val-NH2 [Ac—K—(D)P—V—NH2***]
PGE2 [1]: 24.6 pg/mL | % inhibition [1]: 75%

Acetyl-(D)Lys-(D)Pro-(D)Val-NH2 [Ac—KPV—NH2*]
% of inhibition (interleukin-1α; 1 μM): 49% | IL-1α (interleukin-1α; 1 μM): 11.1 pg/mL | % of inhibition (interleukin-1α; 10 μM): 72% | IL-1α (interleukin-1α; 10 μM): 6.1 pg/mL | % of expression IL-1α (mRNA of IL-1α): 0% | % of expression IL-1R1 [2]: 26% | expression of the mRNAs of IL-1α (IL-1α/GAPDH ratio), % of the control (mRNAs of IL-1α; donor A, 1 μM): 51% | expression of the mRNAs of IL-1α (IL-1α/GAPDH ratio), % of the control (mRNAs of IL-1α; donor A, 10 μM): 28% | expression of the mRNAs of IL-1α (IL-1α/GAPDH ratio), % of the control (mRNAs of IL-1α; donor B, 0.1 μM): 53% | expression of the mRNAs of IL-1α (IL-1α/GAPDH ratio), % of the control (mRNAs of IL-1α; donor B, 1 μM): 62% | expression of the mRNAs of IL-1α (IL-1α/GAPDH ratio), % of the control (mRNAs of IL-1α; donor B, 10 μM): 28.7% | PGE2 [1]: 28.0 pg/mL | % inhibition [1]: 78%
